Article PMC11696576, “Next generation thiazolyl ketone inhibitors of cytosolic phospholipase A2 α for targeted cancer therapy” (Nature Communications, 2025)
Several values for one entry are separate records, joined by “and”; a condition that tells them apart may be missing. Identical values can stand only once. Like-named read-outs stand apart in the source and are kept apart here. Marks after values point to notes of the source that are not given here.

Key:
SW982 synoviocytes = experiment: cellular arachidonic acid (AA) release assay, IL-1β stimulated; format: cell-based, human; conditions: for EC50 / IC50: SW982; for IC50: concentration in µM, read-out: logEC50 best-fit value, AA release (converted)
Excerpt: To test the inhibitory activity of the compounds in cells, we measured their effect on the release of AA from synoviocytes stimulated with IL-1β (Table 2). […] Combined with favorable selectivity and stability it was thus chosen for further evaluation. We looked specifically at how it modulated eicosanoid levels in response to stimulation both in whole blood and in isolated peripheral blood mononuclear cells (PBMCs) and checked for off-target effects on AA metabolism in whole blood by also measuring the effect of GK420 on eicosanoid release in the presence of exogenous free AA.
The human synovial sarcoma cell line SW982 (ATCC, London, UK) was used to measure AA release. The cells were maintained in Dulbecco’s Modified Eagle Medium (DMEM) supplemented with 10% FBS, 0.1 mg/mL gentamicin, and 0.3 mg/mL L-glutamine at 37 °C with 10% CO2, and experiments were performed at 3 days post-confluence. To measure AA release, the cells were labeled overnight with ^3H-AA (0.4 μCi/mL) in serum-free DMEM and then washed twice with PBS containing fBSA (2 mg/mL) to remove unincorporated radioactivity. The inhibitors, or DMSO vehicle control, were subsequently added to the cells for 1 hour prior to stimulation with 10 ng/mL IL-1β for 4 h. Supernatants were collected and centrifuged at 300 × g for 5 min to clear them of detached cells and adherent cells were dissolved in 1 N NaOH. The ^3H-AA was assessed by liquid scintillation counting (LS 6500 Multi-Purpose Scintillation Counter, Beckman Coulter, Inc., USA) and the results are given as the inhibition of released ^3H-AA in the supernatants relative to total ^3H-AA incorporated into the cells, as described. EC50 values were calculated by fitting the % inhibition data to a three-parameter dose-response curve in GraphPad prism v10.4.0. Experiments were performed in technical triplicates and repeated at least three times.

recombinant human cPLA2α = biological target: T1, recombinant human cPLA2α (Homo sapiens, UniProt P47712); experiment: radioactivity-based mixed micelle assay, cPLA2α; format: biochemical; conditions: for cPLA2α inhibition, Xi50 dose-response: replicates; for cPLA2α XI(50): XI(50) ± stdev, mole fraction of inhibitor in total substrate interface for 50% inhibition; for cPLA2 % inhibition at 0.091 mole fraction, average: average of triplicates
T1 sequence (P47712 1-749): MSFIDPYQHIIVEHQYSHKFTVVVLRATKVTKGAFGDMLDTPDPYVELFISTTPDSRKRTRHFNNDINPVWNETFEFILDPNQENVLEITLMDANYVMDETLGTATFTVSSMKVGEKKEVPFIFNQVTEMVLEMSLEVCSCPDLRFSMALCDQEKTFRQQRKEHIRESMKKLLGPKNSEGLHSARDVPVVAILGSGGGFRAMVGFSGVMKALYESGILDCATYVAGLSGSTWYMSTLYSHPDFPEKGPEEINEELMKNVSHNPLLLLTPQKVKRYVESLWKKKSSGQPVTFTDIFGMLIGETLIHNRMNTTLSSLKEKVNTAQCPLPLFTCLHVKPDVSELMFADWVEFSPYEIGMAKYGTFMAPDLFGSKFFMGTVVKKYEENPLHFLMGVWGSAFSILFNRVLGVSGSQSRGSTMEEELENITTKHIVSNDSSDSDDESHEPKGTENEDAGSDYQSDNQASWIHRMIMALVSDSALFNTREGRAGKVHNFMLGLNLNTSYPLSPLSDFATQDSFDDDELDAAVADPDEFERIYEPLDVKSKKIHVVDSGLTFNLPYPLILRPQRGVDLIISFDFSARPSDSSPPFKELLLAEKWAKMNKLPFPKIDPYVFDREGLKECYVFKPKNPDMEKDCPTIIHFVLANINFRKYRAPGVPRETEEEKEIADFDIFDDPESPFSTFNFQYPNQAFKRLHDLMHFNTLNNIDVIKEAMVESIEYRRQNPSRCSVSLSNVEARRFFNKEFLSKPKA
Description: (§1) All synthesized thiazolyl ketones were tested for their in vitro inhibitory activity on recombinant human cPLA2α and selectivity over human calcium-independent GVIA iPLA2 and secreted GV sPLA2 using our previously described group-specific radioactivity-based mixed micelle assays. The inhibition results are presented either as per cent inhibition or as XI(50) values in Table 1. […] The XI(50) is defined as the mole fraction of the inhibitor in the total substrate interface required to inhibit the enzyme activity by 50%. For comparison purposes, previously published data for the inhibitor GK470[19] are included. […] Inhibitors were initially screened at 0.091 mol fraction (5 μL of 5 mM inhibitor in DMSO) in substrate (495 μL) in technical triplicates. […] The XI(50) value and stdev values reported are for the entire curve. This analysis was performed in GraphPad Prism v6.

secreted GV sPLA2 = biological target: T2, secreted GV sPLA2 (Homo sapiens, UniProt P39877); experiment: radioactivity-based mixed micelle assay, GV sPLA2; format: biochemical
T2 sequence (P39877 21-138): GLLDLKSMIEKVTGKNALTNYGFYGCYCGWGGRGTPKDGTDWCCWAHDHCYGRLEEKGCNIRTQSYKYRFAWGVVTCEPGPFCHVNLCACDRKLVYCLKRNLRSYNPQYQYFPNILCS
Description: as §1

[1] = stability in human plasma (LC-MS/MS); format: in vitro ADME; conditions: for Stability in human plasma 4 h: % of the compound remaining after 4 h; for Stability in human plasma 20+ h: % of the compound remaining after 24 h 39 min (*); for plasma stability 24h39min (%) / plasma stability 4h (%): individual sample, human plasma
Description: The stability of the analogs in human plasma was studied over approximately 24 h by LC-MS/MS and the results at 4 h and the final timepoint (20–25 h) are included in Table 1.
The metabolic stability of the compounds was determined through in vitro stability assays in human plasma. Solutions of compounds in DMSO (20 mM) were diluted to 5 μg/mL in 50% methanol for infusion into the MS/MS system and spiking of calibration standards and control samples. For the MS detection, positive ionization in ESI mode was used. Good sensitivity, retention and peak shaped were achieved using a gradient with 5 mM ammonium carbamate in water and ammonium carbamate in 90% acetonitrile on a reversed phase column (ACE3AQ). Calibration standards were spiked in a calibration range of 0.5–100 ng/ml. Control samples were spiked at, low, medium, and high concentration levels. The spiked plasma samples were prepared by protein precipitation using acetonitrile containing appropriate internal standard (IS). […] Samples were prepared for analysis by taking 50 μL of plasma sample and adding 100 μL of IS working solution in acetonitrile followed by vortexing at 2500 rpm (Multi-tube vortexer DVX-2500, Henry Troemner LLC, USA) for 2 min. The samples were centrifuged at 5300 rpm (Heraeus Megafuge 1.0 Heraeus, Germany) for 3 min and the supernatant transferred to the autosampler. Recovery was determined by comparing the prepared matrix samples (protein precipitation) with a direct sample (analytes spikes in 67% acetonitrile = injection solution) such that the recovery of the sample preparation and the matrix effects were determined together. Two or three samples were each measured in technical triplicates to give the final % recovery.

[2] = 0.2 µM, individual biological replicate
[3] = 1 µM, individual biological replicate
[4] = 5 µM, individual biological replicate
[5] = Homo sapiens, SW982, 4 h, 1 µM inhibitor, IL-1β 4 h, mean ± stdev, read-out: AA release % Inhib
[6] = Homo sapiens, IL-1β 4 h, 0.2, 1 or 5 µM inhibitor, read-out: AA release EC50 µM (95% CI)
[7] = Homo sapiens, [Agonist] vs. Response (three parameters)
[8] = Homo sapiens, [Agonist] vs. Response (three parameters), read-out: EC50 best-fit value, AA release
[9] = 0.091 mole fraction, read-out: cPLA2α % Inhib
[10] = individual technical replicate, read-out: cPLA2 % inhibition at 0.091 mole fraction
[11] = 0.091 mole fraction, read-out: GV sPLA2 % Inhib
[12] = average of triplicates, read-out: sPLA2 % inhibition at 0.091 mole fraction, average
[13] = individual technical replicate, read-out: sPLA2 % inhibition at 0.091 mole fraction

EC50 (SW982 synoviocytes; [6]) | IC50 (SW982 synoviocytes; [7]) | EC50 (SW982 synoviocytes; [8]) | inhibition at 0.091 mole fraction (recombinant human cPLA2α; [9]) | cPLA2 % inhibition at 0.091 mole fraction, average (recombinant human cPLA2α) | inhibition at 0.091 mole fraction (recombinant human cPLA2α; [10]) | inhibition at 0.091 mole fraction (secreted GV sPLA2; [11]) | inhibition at 0.091 mole fraction (secreted GV sPLA2; [12]) | inhibition at 0.091 mole fraction (secreted GV sPLA2; [13]) | Stability in human plasma 4 h [1] | Stability in human plasma 20+ h [1] | plasma stability 24h39min (%) [1] | plasma stability 4h (%) [1] | Compound | % inhibition of stimulated AA release (SW982 synoviocytes; [2]) | % inhibition of stimulated AA release (SW982 synoviocytes; [3]) | % inhibition of stimulated AA release (SW982 synoviocytes; [4]) | inhibition at 1 µM (SW982 synoviocytes; [5]) | cPLA2α XI(50) (recombinant human cPLA2α) | other results
0.32 µM | 0.325 µM | 0.325 µM | 97% | 96.6% | 96% | 53% | 53.3% | 50.7% | 59.9% | 12.8* % | 10.7% and 14.8% | 55.1% and 64.7% | CCCCCCCOc1ccc(OC(C)C(=O)c2nc(C(=O)OC)cs2)cc1 (stereo not drawn) [GK439] | 39.77% and 13.25% and 29.88% and 48.17% | 95.13% and 73.24% and 73.33% and 76.5% | 98.88% and 99.59% and 96.75% | 80 ± 10% | 0.0029 mole fraction and 0.0029 ± 0.0004 mole fraction | inhibition at 5 µM (SW982 synoviocytes; Homo sapiens, SW982, 5 µM, individual biological replicate): 116%; cPLA2α inhibition, Xi50 dose-response (recombinant human cPLA2α; Log [inhibitor] (mole%) -3.00): 33.0
0.18 µM | 0.184 µM | 0.184 µM | 100% | 100.3% | 99.5% | 31% | 30.8% | 34.1% | 21.3% | 0.9* % | 0.5% and 1.3% | 20.1% and 22.4% | COC(=O)c1csc(C(=O)COc2ccc(Oc3ccc(F)cc3)cc2)n1 [GK440] | 52.34% and 48.93% and 32.32% and 54.12% | 77.97% and 89.75% and 95.95% | 121.05% and 107.56% and 129.55% and 117.95% | 88 ± 8% | 0.0010 mole fraction and 0.0010 ± 0.0001 mole fraction | inhibition at 1 µM (SW982 synoviocytes; Homo sapiens, SW982, 1 µM, individual biological replicate, read-out: % inhibition of stimulated AA release): 90%; cPLA2α inhibition, Xi50 dose-response (recombinant human cPLA2α; Log [inhibitor] (mole%) -1.00): 102.2; cPLA2α inhibition, Xi50 dose-response (recombinant human cPLA2α; Log [inhibitor] (mole%) -1.22): 99.7; sPLA2 % inhibition at 0.091 mole fraction (secreted GV sPLA2; individual technical replicate): 29.2%
0.78 µM | 0.783 µM | 0.783 µM | 98% | 97.5% | 96.2% | 53% | – | 51.8% | 63% | 18.35* % | 16.1% and 20.6% | 58.4% and 67.6% | CCCCCCSc1ccc(OC(C)C(=O)c2nc(C(=O)OC)cs2)cc1 (stereo not drawn) [GK449] | 16.56% and 7.46% and 9.46% and 46.5% | 47.16% and 43.5% and 67.91% and 74.94% | 92.05% and 77.81% and 56.83% and 101.84% | 58 ± 15% | 0.0017 mole fraction and 0.0017 ± 0.0005 mole fraction | times more potent than GK470 (recombinant human cPLA2α; cPLA2α XI(50) relative to GK470): 7–11
